Laboratory results from US10010077B2, “Ginkgo derived compositions and their use to prevent fruit infestation by codling moth” (Missouri State University, priority 2012, dated 2018).
Marks after values point to notes of the source that are not given here.

Key:
[1] = tested on: codling moth neonates; test: apple plug choice feeding bioassay with codling moth neonates; type: in vivo, Cydia pomonella; parameters: key to Deterrence index: (1 − treated feeders / control feeders) × 100; conditions: for feeding deterrent properties against codling moth neonates: all concentrations tested; for feeding deterrent properties against codling moth neonates / concentration at which feeding deterrent effects were found: Fisher exact test
Description: Codling moth pupae were obtained from USDA-ARS Yakima Agricultural Research Laboratory in Wapato, Wash., USA. These pupae were stored at 25° C., 70-80% relative humidity and 16:8 (L:D). Moths were allowed to oviposit on polypropylene Ziploc bags (S. C. Johnson, Racine, Wis., USA). Neonates were collected 0.5-1.0 h post-hatch and subjected to bioassays immediately.
Bioassays were performed as described in details by Durden et al. (2008). Briefly, apple plugs were formed by forcing a plastic soda straw through a 20 mm thick section of apple containing both epidermis and flesh of the apple. The straw with a plug in it was cut to a length of approximately 15 mm, the plug positioned with the epidermis of the apple protruding 2 mm from the straw and entire assembly was dipped in liquid paraffin wax. Excess wax was removed from the epidermis of the plug using a warm spatula.
Five microliters of either control (dehydration alcohol only) or experimental solution was applied to the epidermis of each apple plug and allowed to dry. Using a small amount of modeling clay, four plugs (two controls, two experimental) were arranged with one control and one experimental plug facing each other at either side of a 60×15 mm polyurethane petri dish. A short piece of glass rod (1.3 mm diameter) was placed between the two pairs of plugs to form a bridge allowing tested codling moth neonate to choose between either control or experimental plug regardless of which direction the larva traveled along the glass rod.
Assays were evaluated after 20 hours to determine which plug was fed upon. Feeding deterrence index was calculated according to Jones (1952) by dividing the number of the neonates feeding on apple plugs treated with […] by the number of the neonates feeding on the plugs treated with dehydration alcohol only, subtracting this figure from 1, and multiplying the result by 100. Further details about this method may be found in Durden et al. (2008) and Durden et al., (2011).
[…] The number of tests per concentration (each test performed with a different neonate) varied between 13 and 93. The null hypothesis that 50% of neonates would choose control plugs and 50% would choose experimental plugs was tested using Fisher's Exact Test (α=0.05).

[2] = concentration of 0.2%; cited from earlier work
[3] = tested on: mammals; conditions: cited from earlier work
[4] = choice test versus fruit treated at 0.01 mg/ml
[5] = choice test versus fruit treated at 0.1 mg/ml
[6] = choice test versus fruit treated at 1 mg/ml
[7] = circa 3 mg/ml, saturated solution
[8] = choice test versus fruit treated at 0.5 mg/ml
[9] = choice test versus fruit treated at 5 mg/ml
[10] = choice test versus fruit treated at 10 mg/ml
[11] = choice test versus fruit treated at 30 mg/ml

| Molecule | Deterrence index ([1]; 0.1 mg/ml) | Number of neonates feeding Treated fruit ([1]; 0.1 mg/ml) | Deterrence index ([1]; 1 mg/ml) | Number of neonates feeding Treated fruit ([1]; 1 mg/ml) | feeding deterrent properties against codling moth neonates [1] | Number of neonates feeding Control fruit [1, 5] | Number of neonates feeding Control fruit [1, 6] | Deterrence index ([1]; 0.5 mg/ml) | Number of neonates feeding Treated fruit ([1]; 0.5 mg/ml) | Deterrence index ([1]; 5 mg/ml) | Number of neonates feeding Treated fruit ([1]; 5 mg/ml) | Deterrence index ([1]; 10 mg/ml) | Number of neonates feeding Treated fruit ([1]; 10 mg/ml) | Number of neonates feeding Control fruit [1, 8] | Number of neonates feeding Control fruit [1, 9] | Number of neonates feeding Control fruit [1, 10] | further results |
| --- | --- | --- | --- | --- | --- | --- | --- | --- | --- | --- | --- | --- | --- | --- | --- | --- | --- |
| COc1cc(-c2oc3cc(O)cc(O)c3c(=O)c2O)ccc1O [Isorhamnetin] | 10.3 | 26 | No deterrence | 43 | slight tendency to discourage some percentage of the larvae from infesting the fruit | 29 | 28 |  |  |  |  |  |  |  |  |  | Deterrence index ([1]; 0.01 mg/ml): 21.7; Number of neonates feeding Treated fruit ([1]; 0.01 mg/ml): 18; Number of neonates feeding Control fruit [1, 4]: 23; Number of neonates feeding Control fruit ([1]; choice test versus fruit treated at circa 3 mg/ml, saturated solution): 28; Deterrence index [1, 7]: 32.1; Number of neonates feeding Treated fruit [1, 7]: 19 |
| CCCCCCCCCCCCCc1cccc(O)c1C(=O)O [Ginkgolic acid 13:0] |  |  | 26.1 | 17 | did not exhibit significant feeding deterrent properties |  | 23 | 23.5 | 13 | 0 | 14 | 42.1 | 11 | 17 | 14 | 19 |  |
| CCCCCC/C=C\CCCCCCCc1cccc(O)c1C(=O)O [Ginkgolic acid 15:1] |  |  | 41.7 | 14 | did not exhibit significant feeding deterrent properties |  | 24 | 18.8 | 13 | 50.0 | 15 | 63.2 | 7 | 16 | 30 | 19 |  |
| Ginkgolide C | 11.8 | 15 | 20 | 24 | did not exhibit significant feeding deterrent properties | 17 | 30 |  |  |  |  | 10 | 18 |  |  | 20 |  |
| CCCCCCCCCCCCCCCc1cccc(O)c1C(=O)O [Ginkgolic acid 15:0] |  |  | 91.7 | 1* |  |  | 12 | 26.7 | 11 | 81.8 | 4** |  |  | 15 | 22 |  | Deterrence index ([1]; 0.2 mg/ml): 25.0; Number of neonates feeding Treated fruit ([1]; 0.2 mg/ml): 12; Deterrence index ([1]; 2 mg/ml): 73.7; Number of neonates feeding Treated fruit ([1]; 2 mg/ml): 5*; concentration at which feeding deterrent effects were found [1]: ≥ 1 mg/mL; Number of neonates feeding Control fruit ([1]; choice test versus fruit treated at 0.2 mg/ml): 16; Number of neonates feeding Control fruit ([1]; choice test versus fruit treated at 2 mg/ml): 19 |
| O=c1c(O)c(-c2ccc(O)cc2)oc2cc(O)cc(O)c12 [Kaempferol] | No deterrence | 12 | 25 | 24 |  | 8 | 32 |  |  |  |  | No deterrence | 10 |  |  | 10 | Deterrence index ([1]; 30 mg/ml): No deterrence**; Number of neonates feeding Treated fruit ([1]; 30 mg/ml): 35; Deterrence index ([1]; 60 mg/ml): No deterrence*; Number of neonates feeding Treated fruit ([1]; 60 mg/ml): 17; Number of neonates feeding Control fruit [1, 11]: 9; Number of neonates feeding Control fruit ([1]; choice test versus fruit treated at 60 mg/ml): 3 |
| CC1C(=O)OC2C(O)C34C5CC(C(C)(C)C)C36C(OC(=O)C6O)OC4(C(=O)O5)C12O (centres unmarked) [Ginkgolide B] | 12.5 | 14 | 26.1 | 17 |  | 16 | 23 |  |  |  |  | 76.0 | 6*** |  |  | 25 | concentration at which feeding deterrent effects were found [1]: 10 mg/mL |
| CCCCCC/C=C\CCCCCCCCCc1cccc(O)c1C(=O)O [Ginkgolic acid 17:1] |  |  | 5.3 | 18 | did not exhibit significant feeding deterrent properties |  | 19 | 37.5 | 10 | 54.5 | 10 | 60.0 | 8 | 16 | 22 | 20 |  |
| O=c1c(O)c(-c2ccc(O)c(O)c2)oc2cc(O)cc(O)c12 [Quercetin] | No deterrence | 14 | No deterrence | 24 |  | 10 | 24 |  |  |  |  | No deterrence | 20 |  |  | 16 | Deterrence index ([1]; 30 mg/ml): No deterrence**; Number of neonates feeding Treated fruit ([1]; 30 mg/ml): 21; Number of neonates feeding Control fruit [1, 11]: 4 |
| C[C@@H]1C(=O)O[C@H]2C[C@@]34[C@H]5C[C@@H](C(C)(C)C)[C@]36[C@@H](OC(=O)[C@@H]6O)O[C@@]4(C(=O)O5)[C@]21O [Ginkgolide A] | 7.69 | 12 | 40.4 | 28 | did not exhibit significant feeding deterrent properties | 13 | 47 |  |  |  |  | 38.5 | 16 |  |  | 26 |  |
| CC(C)(C)[C@]1(O)CC2OC(=O)CC23C(=O)OC2OC(=O)[C@H](O)C231 (some centres unmarked) [Bilobalide] | 56.5 | 20* | 50 | 31* |  | 46 | 62 |  |  |  |  | 75 | 8** |  |  | 32 | phytotoxicity [2]: not phytotoxic; Deterrence index ([1]; 0.001 mg/ml): 0; Number of neonates feeding Treated fruit ([1]; 0.001 mg/ml): 15; Deterrence index ([1]; 0.01 mg/ml): 23.5; Number of neonates feeding Treated fruit ([1]; 0.01 mg/ml): 13; concentration at which feeding deterrent effects were found [1]: ≥ 0.1 mg/mL; Number of neonates feeding Control fruit ([1]; choice test versus fruit treated at 0.001 mg/ml): 15; Number of neonates feeding Control fruit [1, 4]: 17; LD50 [3]: > 1,000 mg/kg |
